Experimental data reported in patent US8952024B2, “Herbicidal pyrimidone derivatives” (E I du Pont de Nemours and Company, priority 2009, dated 2015).
Like-named read-outs stand apart in the source and are kept apart here.

What was measured:
Format in all cases: in vivo
[1] = test system: windgrass (Apera spica-venti); assay: Test B postemergence plant response
In short: (§1)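 Plants at the 1- to 4-leaf stage (2 to 18 cm tall), grown in pots of peat moss/vermiculite medium with wetting agent and starter nutrients, received postemergence applications of test chemicals. After 13 to 15 days in a greenhouse, injury was rated visually against untreated controls on a 0 (no effect) to 100 (complete control) scale.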

[2] = test system: canarygrass (Phalaris minor); assay: Test B postemergence plant response
In short: as §1

[3] = test system: winter barley (Hordeum vulgare); assay: Test B postemergence plant response
In short: as §1

[4] = test system: chickweed (Stellaria media); assay: Test B postemergence plant response
In short: as §1

[5] = test system: large crabgrass (Digitaria sanguinalis); assay: Test A pre-/postemergence plant response; conditions: Digitaria sanguinalis, 240 h, read-out: Plant response rating, Crabgrass, Large; for pest or weed control at 125 g/ha: 125 g ai/ha; for pest or weed control at 500 g/ha: 500 g ai/ha, approx. ten days
In short: (§2)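 Greenhouse pots of loam/sand received directed preemergence soil sprays or postemergence sprays (plants 2–10 cm, 1–2 leaf stage), compounds formulated in non-phytotoxic solvent with surfactant. Injury was rated visually versus untreated controls after about ten days on a 0 (no effect) to 100 (complete control) scale.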

[6] = test system: barnyardgrass (Echinochloa crus-galli); assay: Test A pre-/postemergence plant response; conditions: Echinochloa crus-galli, 240 h, read-out: Plant response rating, Barnyardgrass; for pest or weed control at 125 g/ha: 125 g ai/ha; for pest or weed control at 500 g/ha: 500 g ai/ha, approx. ten days
In short: as §2

[7] = test system: velvetleaf (Abutilon theophrasti); assay: Test A pre-/postemergence plant response; conditions: Abutilon theophrasti, 240 h, read-out: Plant response rating, Velvetleaf; for pest or weed control at 125 g/ha: 125 g ai/ha; for pest or weed control at 500 g/ha: 500 g ai/ha, approx. ten days
In short: as §2

[8] = test system: giant foxtail (Setaria faberii); assay: Test A pre-/postemergence plant response; conditions: Setaria faberi, 240 h, read-out: Plant response rating, Foxtail, Giant; for pest or weed control at 125 g/ha: 125 g ai/ha; for pest or weed control at 500 g/ha: 500 g ai/ha, approx. ten days
In short: as §2

corn (Zea mays) = assay: Test A pre-/postemergence plant response; conditions: Zea mays, 240 h; for Corn plant response rating (crop injury, 0 = no effect, 100 = complete kill) at 125 g/ha: 125 g ai/ha; for Corn plant response rating (crop injury, 0 = no effect, 100 = complete kill) at 500 g/ha: 500 g ai/ha, approx. ten days
In short: as §2

[9] = test system: wheat (Triticum aestivum); assay: Test A pre-/postemergence plant response; conditions: Triticum aestivum, 240 h, read-out: Plant response rating, Wheat; for plant injury at 125 g/ha: 125 g ai/ha; for plant injury at 500 g/ha: 500 g ai/ha, approx. ten days
In short: as §2

[10] = test system: sunflower (common oilseed sunflower, Helianthus annuus); assay: Test B pre-/postemergence plant response; conditions: Preemergence
In short: (§3)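 Each species received compound formulated in non-phytotoxic solvent with surfactant, either at planting into a loam and sand blend or as a foliar spray once plants reached 2 to 18 cm in peat-based medium. Plants stayed in the greenhouse 13 to 15 days before visual evaluation against controls, scored 0 (no effect) to 100 (complete control).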

[11] = test system: nightshade (eastern black nightshade, Solanum ptycanthum); assay: Test B pre-/postemergence plant response; conditions: Preemergence
In short: as §3

[12] = test system: galium (catchweed bedstraw, Galium aparine); assay: Test B pre-/postemergence plant response; conditions: Preemergence
In short: as §3

[13] = 62 g ai/ha, postemergence, 0 is no effect, 100 is complete control, 13 to 15 days
[14] = post-emergence, Postemergence, 0 to 100 scale where 0 is no effect and 100 is complete control
[15] = post-emergence, Postemergence, 0 to 100 scale, 0 = no effect, 100 = complete control
[16] = pre-emergence, Preemergence, 0 to 100 scale, 0 = no effect, 100 = complete control
[17] = pre-emergence, Preemergence, visual injury, 0 to 100 scale (0 no effect, 100 complete control)
[18] = 31 g ai/ha, scale 0 to 100 (0 no effect, 100 complete control)
[19] = 62 g ai/ha, scale 0 to 100, 0 no effect, 100 complete control
[20] = 125 g ai/ha, scale 0 to 100, 0 no effect, 100 complete control

In the case of COCCCn1c(-c2ccccc2)ncc(C(=O)C2=C(O)CCCC2=O)c1=O [Compound 81, 5-[(2-hydroxy-6-oxo-cyclohexen-1-yl)carbonyl]-3-(3-methoxypropyl)-2-phenyl-4(3H)-pyrimidinone], the “Windgrass plant response rating (0 to 100 scale)” value [1, 13] is reported as 50, the pest or weed control at 31 g/ha ([1]; Apera spica-venti, post-emergence, 360 h, 31 g ai/ha, postemergence, scale 0 to 100, 0 is no effect, 100 is complete control, read-out: Plant response rating, Windgrass) is reported as 10% and the pest or weed control at 125 g/ha ([1]; Apera spica-venti, post-emergence, 360 h, Postemergence, 125 g ai/ha, visual rating after 13 to 15 days, scale 0 (no effect) to 100 (complete control)) is reported as 60%. For the same compound, the pest or weed control at 250 g/ha ([1]; Apera spica-venti, post-emergence, 360 h, Postemergence, 250 g ai/ha, scale 0 to 100 (0 no effect, 100 complete control), read-out: Plant response rating, Windgrass) was 70%, the “Canarygrass plant response rating (0 to 100 scale)” value [2, 13] was 5 and the pest or weed control at 31 g/ha ([2]; Phalaris minor, post-emergence, 360 h, 31 g ai/ha, postemergence, scale 0 to 100, 0 is no effect, 100 is complete control, read-out: Plant response rating, Canarygrass) was 0%. For the same compound, the pest or weed control at 125 g/ha ([2]; Phalaris minor, post-emergence, 360 h, Postemergence, 125 g ai/ha, visual rating after 13 to 15 days, scale 0 (no effect) to 100 (complete control)) was 10%, the pest or weed control at 250 g/ha ([2]; Phalaris minor, post-emergence, 360 h, Postemergence, 250 g ai/ha, scale 0 to 100 (0 no effect, 100 complete control), read-out: Plant response rating, Canarygrass) was 20% and the “Barley plant response rating (0 to 100 scale)” value [3, 13] was 0. It also gave a plant injury at 31 g/ha ([3]; Hordeum vulgare, post-emergence, 31 g ai/ha, postemergence, scale 0 to 100, 0 is no effect, 100 is complete control, read-out: Plant response rating, Barley) of 0%, a plant injury at 125 g/ha ([3]; Hordeum vulgare, post-emergence, Postemergence, 125 g ai/ha, visual rating after 13 to 15 days, scale 0 (no effect) to 100 (complete control)) of 0% and a plant injury at 250 g/ha ([3]; Hordeum vulgare, post-emergence, Postemergence, 250 g ai/ha, scale 0 to 100 (0 no effect, 100 complete control), read-out: Plant response rating, Barley) of 5%. For the same compound, the “Chickweed plant response rating (0 to 100 scale)” value [4, 13] was 98, the pest or weed control at 31 g/ha ([4]; Stellaria media, post-emergence, 360 h, 31 g ai/ha, postemergence, scale 0 to 100, 0 is no effect, 100 is complete control, read-out: Plant response rating, Chickweed) was 95% and the pest or weed control at 125 g/ha ([4]; Stellaria media, post-emergence, 360 h, Postemergence, 125 g ai/ha, visual rating after 13 to 15 days, scale 0 (no effect) to 100 (complete control)) was 98%. For the same compound, the pest or weed control at 250 g/ha ([4]; Stellaria media, post-emergence, 360 h, Postemergence, 250 g ai/ha, scale 0 to 100 (0 no effect, 100 complete control), read-out: Plant response rating, Chickweed) was 100%, the pest or weed control at 125 g/ha [5, 14] was 90% and the pest or weed control at 500 g/ha [5, 15] was 90%. It also gave a pest or weed control at 125 g/ha [5, 16] of 90%, a pest or weed control at 500 g/ha [5, 17] of 100% and a pest or weed control at 125 g/ha [6, 14] of 100%. For the same compound, the pest or weed control at 500 g/ha [6, 15] was 100%, the pest or weed control at 125 g/ha [6, 16] was 50% and the pest or weed control at 500 g/ha [6, 17] was 90%. For the same compound, the pest or weed control at 125 g/ha [7, 14] was 100%, the pest or weed control at 500 g/ha [7, 15] was 100% and the pest or weed control at 125 g/ha [7, 16] was 100%. For the same compound, the pest or weed control at 500 g/ha [7, 17] was 100%, the pest or weed control at 125 g/ha [8, 14] was 80% and the pest or weed control at 500 g/ha [8, 15] was 90%. It also gave a pest or weed control at 125 g/ha [8, 16] of 30%, a pest or weed control at 500 g/ha [8, 17] of 80% and a Corn plant response rating (crop injury, 0 = no effect, 100 = complete kill) at 125 g/ha (corn (Zea mays); [14]) of 10%. The Corn plant response rating (crop injury, 0 = no effect, 100 = complete kill) at 500 g/ha (corn (Zea mays); [15]) was 70%, the Corn plant response rating (crop injury, 0 = no effect, 100 = complete kill) at 125 g/ha (corn (Zea mays); [16]) was 0% and the Corn plant response rating (crop injury, 0 = no effect, 100 = complete kill) at 500 g/ha (corn (Zea mays); [17]) was 0%. The plant injury at 125 g/ha [9, 14] was 0%, the plant injury at 500 g/ha [9, 15] was 30% and the plant injury at 125 g/ha [9, 16] was 0%. The plant injury at 500 g/ha [9, 17] was 20%, the “Plant response rating, Sunflower” value [10, 18] was 60 and the “Plant response rating, Sunflower” value [10, 19] was 75. The “Plant response rating, Sunflower” value [10, 20] was 85, the “Sunflower plant response rating” value ([10]; 250 g ai/ha, 0 to 100 scale) was 90 and the “Plant response rating, Nightshade” value [11, 18] was 98. The “Plant response rating, Nightshade” value [11, 19] was 98, the “Plant response rating, Nightshade” value [11, 20] was 98 and the “Nightshade plant response rating” value ([11]; 250 g ai/ha, 0 to 100 scale) was 100. The “Plant response rating, Galium” value [12, 18] was 85, the “Plant response rating, Galium” value [12, 19] was 100 and the “Plant response rating, Galium” value [12, 20] was 100. For the same compound, the “Galium plant response rating” value ([12]; 250 g ai/ha, 0 to 100 scale) was 100.
